Test results as given in PMC7914897, “Cytotoxic Potential of a-Azepano- and 3-Amino-3,4-SeCo-Triterpenoids” (International Journal of Molecular Sciences, 2021).
Where two headings read alike, the source gives them in different places.

How the values were obtained:
MDA-MB-435 (Melanoma) = assay: NCI-60 screen (SRB, 48 h); format: cell-based
Leukemia subpanel = assay: cells; details: Homo sapiens; for IC (TGI): 48 h, read-out: TGI MG_MID; for GI50: read-out: GI50 MG_MID; for CC50: read-out: LC50 MG_MID
OVCAR-3 (Ovarian cancer) = assay: cells; details: Homo sapiens; for GI50: OVCAR-3
[1] = test system: MDA-MB-468 (Breast cancer); assay: cells; details: Homo sapiens; for GI50: MDA-MB-468; for IC (TGI): MDA-MB-468, 48 h, read-out: TGI
Melanoma subpanel = assay: NCI-60 screen, subpanel; details: Homo sapiens; for IC (TGI): 48 h, read-out: TGI MG_MID; for GI50: read-out: GI50 MG_MID
Renal Cancer subpanel = assay: NCI-60 screen, subpanel; details: Homo sapiens; for IC (TGI): 48 h, read-out: TGI MG_MID; for GI50: read-out: GI50 MG_MID; for CC50: read-out: LC50 MG_MID
Prostate cancer subpanel = assay: NCI-60 screen, subpanel; details: Homo sapiens; for IC (TGI): 48 h, read-out: TGI MG_MID; for GI50: read-out: GI50 MG_MID
Breast cancer subpanel = assay: NCI-60 screen, subpanel; details: Homo sapiens; for IC (TGI): 48 h, read-out: TGI MG_MID; for GI50: read-out: GI50 MG_MID
CCRF-CEM (Leukemia) = assay: NCI-60 screen (SRB, 48 h); details: Homo sapiens; for CC50: read-out: LC50
MOLT-4 (Leukemia) = assay: NCI-60 screen (SRB, 48 h); details: Homo sapiens; for GI50: MOLT-4
RPMI-8226 (Leukemia) = assay: NCI-60 screen (SRB, 48 h); details: Homo sapiens; for GI50: RPMI-8226; for IC (TGI): RPMI-8226, 48 h, read-out: TGI
EKVX (NSC lung cancer) = assay: NCI-60 screen (SRB, 48 h); details: Homo sapiens; for IC (TGI): 48 h, read-out: TGI
HOP-62 (NSC lung cancer) = assay: NCI-60 screen (SRB, 48 h); details: Homo sapiens; for GI50: HOP-62; for IC (TGI): HOP-62, 48 h, read-out: TGI
[2] = test system: NCI-H226 (NSC lung cancer); assay: NCI-60 screen (SRB, 48 h); details: Homo sapiens; for GI50: NCI-H226; for IC (TGI): NCI-H226, 48 h, read-out: TGI
[3] = test system: NCI-H460 (NSC lung cancer); assay: NCI-60 screen (SRB, 48 h); details: Homo sapiens; for GI50: NCI-H460
COLO 205 (Colon cancer) = assay: NCI-60 screen (SRB, 48 h); details: Homo sapiens; for GI50: COLO 205; for IC (TGI): COLO 205, 48 h, read-out: TGI
HCC-2998 (Colon cancer) = assay: NCI-60 screen (SRB, 48 h); details: for GI50: HCC 2998
SNB-19 (CNS cancer) = assay: NCI-60 screen (SRB, 48 h); details: Homo sapiens; for GI50: SNB-19; for IC (TGI): SNB-19, 48 h, read-out: TGI
U251 (CNS cancer) = assay: NCI-60 screen (SRB, 48 h); details: Homo sapiens; for GI50: U-251
MALME-3M (Melanoma) = assay: NCI-60 screen (SRB, 48 h); details: Homo sapiens; for IC (TGI): 48 h, read-out: TGI
SK-MEL-2 (Melanoma) = assay: NCI-60 screen (SRB, 48 h); details: Homo sapiens; for GI50: SK-MEL-2; for IC (TGI): SK-MEL-2, 48 h, read-out: TGI
SK-MEL-28 (Melanoma) = assay: NCI-60 screen (SRB, 48 h); details: Homo sapiens; for GI50: SK-MEL-28
SK-MEL-5 (Melanoma) = assay: NCI-60 screen (SRB, 48 h); details: Homo sapiens; for GI50: SK-MEL-5; for IC (TGI): SK-MEL-5, 48 h, read-out: TGI
OVCAR-5 (Ovarian cancer) = assay: NCI-60 screen (SRB, 48 h); details: for GI50 / IC (TGI): Homo sapiens; for GI50: OVCAR-5; for IC (TGI): OVCAR-5, 48 h, read-out: TGI
SK-OV-3 (Ovarian cancer) = assay: NCI-60 screen (SRB, 48 h); details: Homo sapiens; for GI50: SK-OV-3; for IC (TGI): SK-OV-3, 48 h, read-out: TGI; for CC50: SK-OV-3, read-out: LC50
786-0 (Renal cancer) = assay: NCI-60 screen (SRB, 48 h); details: Homo sapiens; for GI50: 786-0; for IC (TGI): 786-0, 48 h, read-out: TGI
MCF7 (Breast cancer) = assay: NCI-60 screen (SRB, 48 h); details: Homo sapiens; for GI50: MCF7
[4] = test system: MDA-MB-31/ATCC (Breast cancer); assay: NCI-60 screen (SRB, 48 h); details: Homo sapiens

What does the source list for `C=C(C)[C@@H]1CCC=C2CC[C@]3(C)[C@H](CC[C@@H]4[C@@]5(C)CCCNC(C)(C)[C@@H]5CC[C@]43C)[C@H]21` [Compound 8]?
GI50 (MDA-MB-435 (Melanoma); Homo sapiens, MDA-MB-435): 1.87 µM; IC (TGI) (MDA-MB-435 (Melanoma); Homo sapiens, MDA-MB-435, 48 h, read-out: TGI): 3.49 µM; CC50 (MDA-MB-435 (Melanoma); Homo sapiens, MDA-MB-435; read-out: LC50 (the source's name)): 6.51 µM; IC (TGI) (Leukemia subpanel): 5.18 µM; GI50 (Leukemia subpanel): 1.48 µM; CC50 (Leukemia subpanel): > 100 µM; GI50 (OVCAR-3 (Ovarian cancer)): 1.79 µM; IC (TGI) (OVCAR-3 (Ovarian cancer); OVCAR-3, 48 h, read-out: TGI): 3.4 µM; GI50 [1]: 1.78 µM; IC (TGI) [1]: 3.43 µM; CC50 ([1]; MDA-MB-468, read-out: LC50): 6.6 µM; IC (TGI) (Melanoma subpanel): 3.46 µM; GI50 (Melanoma subpanel): 1.84 µM; CC50 (Melanoma subpanel; read-out: LC50 MG_MID): 6.73 µM; IC (TGI) (Renal Cancer subpanel): 3.34 µM; GI50 (Renal Cancer subpanel): 1.79 µM; CC50 (Renal Cancer subpanel): 6.18 µM; IC (TGI) (Prostate cancer subpanel): 3.2 µM; GI50 (Prostate cancer subpanel): 1.71 µM; CC50 (Prostate cancer subpanel; read-out: LC50 MG_MID): 5.97 µM; IC (TGI) (Breast cancer subpanel): 3.47 µM; GI50 (Breast cancer subpanel): 1.71 µM; CC50 (Breast cancer subpanel; read-out: LC50 MG_MID): 8.38 µM; GI50 (CCRF-CEM (Leukemia)): 2.27 µM; IC (TGI) (CCRF-CEM (Leukemia); 48 h, read-out: TGI): 5.63 µM; CC50 (CCRF-CEM (Leukemia)): > 100 µM; GI50 (MOLT-4 (Leukemia)): 1.09 µM; GI50 (RPMI-8226 (Leukemia)): 2.26 µM; IC (TGI) (RPMI-8226 (Leukemia)): 4.73 µM; GI50 (EKVX (NSC lung cancer)): 1.66 µM; IC (TGI) (EKVX (NSC lung cancer)): 3.21 µM; GI50 (HOP-62 (NSC lung cancer)): 1.82 µM; IC (TGI) (HOP-62 (NSC lung cancer)): 3.41 µM; CC50 (HOP-62 (NSC lung cancer); HOP-62, read-out: LC50): 6.38 µM; GI50 [2]: 1.97 µM; IC (TGI) [2]: 3.81 µM; GI50 [3]: 1.22 µM; IC (TGI) ([3]; NCI-H460, 48 h, read-out: TGI): 2.81 µM; GI50 (COLO 205 (Colon cancer)): 1.38 µM; IC (TGI) (COLO 205 (Colon cancer)): 2.79 µM; CC50 (COLO 205 (Colon cancer); COLO 205, read-out: LC50): 5.64 µM; Growth % of the Most Sensitive Cell Lines (HCC-2998 (Colon cancer); HCC-2998, 1 dose 10 µM): −93.75%; GI50 (HCC-2998 (Colon cancer); Homo sapiens): 1.31 µM; IC (TGI) (HCC-2998 (Colon cancer); Homo sapiens, HCC 2998, 48 h, read-out: TGI): 2.76 µM; GI50 (SNB-19 (CNS cancer)): 1.93 µM; IC (TGI) (SNB-19 (CNS cancer)): 3.44 µM; GI50 (U251 (CNS cancer)): 1.76 µM; IC (TGI) (U251 (CNS cancer); U-251, 48 h, read-out: TGI): 3.26 µM; CC50 (U251 (CNS cancer); U-251, read-out: LC50): 6.07 µM; GI50 (MALME-3M (Melanoma)): 1.7 µM; IC (TGI) (MALME-3M (Melanoma)): 3.46 µM; GI50 (SK-MEL-2 (Melanoma)): 2.01 µM; IC (TGI) (SK-MEL-2 (Melanoma)): 3.69 µM; CC50 (SK-MEL-2 (Melanoma); SK-MEL-2, read-out: LC50): 6.8 µM; GI50 (SK-MEL-28 (Melanoma)): 1.81 µM; IC (TGI) (SK-MEL-28 (Melanoma); SK-MEL-28, 48 h, read-out: TGI): 3.35 µM; CC50 (SK-MEL-28 (Melanoma); SK-MEL-28, read-out: LC50): 6.18 µM; GI50 (SK-MEL-5 (Melanoma)): 1.7 µM; IC (TGI) (SK-MEL-5 (Melanoma)): 3.14 µM; GI50 (OVCAR-5 (Ovarian cancer)): 1.75 µM; IC (TGI) (OVCAR-5 (Ovarian cancer)): 3.32 µM; GI50 (SK-OV-3 (Ovarian cancer)): 1.81 µM; IC (TGI) (SK-OV-3 (Ovarian cancer)): 3.37 µM; CC50 (SK-OV-3 (Ovarian cancer)): 6.28 µM; GI50 (786-0 (Renal cancer)): 1.76 µM; IC (TGI) (786-0 (Renal cancer)): 3.51 µM; GI50 (MCF7 (Breast cancer)): 1.37 µM; IC (TGI) (MCF7 (Breast cancer); MCF7, 48 h, read-out: TGI): 2.92 µM; CC50 (MCF7 (Breast cancer); MCF7, read-out: LC50): 6.22 µM; GI50 [4]: 1.81 µM; IC (TGI) ([4]; 48 h, read-out: TGI): 3.35 µM; CC50 ([4]; read-out: LC50): 6.2 µM

Which results are given for `C=C(C)[C@@H]1CC[C@]2(COS(=O)(=O)c3ccc(C)cc3)CC[C@]3(C)[C@@H](CC[C@@H]4[C@@]5(C)CCCNC(C)(C)[C@@H]5CC[C@]43C)[C@@H]12` [Compound 12]?
IC (TGI) (MDA-MB-435 (Melanoma); Homo sapiens, MDA-MB-435, 48 h; read-out: TGI): 3.19 µM; GI50 (MDA-MB-435 (Melanoma); Homo sapiens, MDA-MB-435; read-out: GI50): 1.73 µM; IC (TGI) (Leukemia subpanel): 4.06 µM; GI50 (Leukemia subpanel): 1.83 µM; CC50 (Leukemia subpanel): > 100 µM; GI50 (OVCAR-3 (Ovarian cancer)): 1.67 µM; GI50 [1]: 1.74 µM; IC (TGI) [1]: 3.33 µM; IC (TGI) (Melanoma subpanel): 3.42 µM; GI50 (Melanoma subpanel): 1.87 µM; IC (TGI) (Renal Cancer subpanel): 3.26 µM; GI50 (Renal Cancer subpanel): 1.76 µM; CC50 (Renal Cancer subpanel): 5.87 µM; IC (TGI) (Prostate cancer subpanel): 3.15 µM; GI50 (Prostate cancer subpanel): 1.67 µM; IC (TGI) (Breast cancer subpanel): 3.5 µM; GI50 (Breast cancer subpanel): 1.71 µM; GI50 (CCRF-CEM (Leukemia)): 2.28 µM; CC50 (CCRF-CEM (Leukemia)): > 100 µM; GI50 (MOLT-4 (Leukemia)): 1.62 µM; IC (TGI) (MOLT-4 (Leukemia); MOLT-4, 48 h, read-out: TGI): 3.59 µM; GI50 (RPMI-8226 (Leukemia)): 1.86 µM; IC (TGI) (RPMI-8226 (Leukemia)): 4.54 µM; CC50 (RPMI-8226 (Leukemia); RPMI-8226, read-out: LC50): > 100 µM; GI50 (EKVX (NSC lung cancer)): 1.62 µM; IC (TGI) (EKVX (NSC lung cancer)): 3.11 µM; GI50 (HOP-62 (NSC lung cancer)): 1.65 µM; IC (TGI) (HOP-62 (NSC lung cancer)): 3.13 µM; GI50 [2]: 1.81 µM; IC (TGI) [2]: 3.63 µM; GI50 [3]: 1.68 µM; GI50 (COLO 205 (Colon cancer)): 1.75 µM; IC (TGI) (COLO 205 (Colon cancer)): 3.24 µM; GI50 (HCC-2998 (Colon cancer); Homo sapiens): 1.58 µM; GI50 (SNB-19 (CNS cancer)): 2.04 µM; IC (TGI) (SNB-19 (CNS cancer)): 3.68 µM; GI50 (U251 (CNS cancer)): 1.75 µM; GI50 (MALME-3M (Melanoma)): 1.84 µM; IC (TGI) (MALME-3M (Melanoma)): 3.79 µM; GI50 (SK-MEL-2 (Melanoma)): 1.84 µM; IC (TGI) (SK-MEL-2 (Melanoma)): 3.32 µM; GI50 (SK-MEL-28 (Melanoma)): 2.15 µM; GI50 (SK-MEL-5 (Melanoma)): 1.67 µM; IC (TGI) (SK-MEL-5 (Melanoma)): 3.08 µM; GI50 (OVCAR-5 (Ovarian cancer)): 1.64 µM; IC (TGI) (OVCAR-5 (Ovarian cancer)): 3.13 µM; Growth % of the Most Sensitive Cell Lines (OVCAR-5 (Ovarian cancer); OVCAR-5, 1 dose 10 µM): −87.72%; GI50 (SK-OV-3 (Ovarian cancer)): 1.87 µM; IC (TGI) (SK-OV-3 (Ovarian cancer)): 3.3 µM; CC50 (SK-OV-3 (Ovarian cancer)): 5.82 µM; GI50 (786-0 (Renal cancer)): 1.92 µM; IC (TGI) (786-0 (Renal cancer)): 3.59 µM; GI50 (MCF7 (Breast cancer)): 1.45 µM; GI50 [4]: 1.88 µM
